These are literature values, as cited in patent US20110052581A1 (Poniard Pharmaceuticals Inc., priority 2008, published 2011).

The subject of this data set is patients with advanced colorectal cancer. The note with it: single agent therapy.

On to `CCc1c2c(nc3ccc(OC(=O)N4CCC(N5CCCCC5)CC4)cc13)-c1cc3c(c(=O)n1C2)COC(=O)[C@]3(O)CC` [irinotecan], for which the median survival is on record as ~12 months, the “progression-free survival (median)” value was 4.3 months and the response rate was 18%.
`O=C1[O][Pt]2([NH][C@@H]3CCCC[C@H]3[NH]2)[O]C1=O` [oxaliplatin]: the “progression-free survival (median)” value was 4.0 months and the response rate is given as 12%.
